{"source": "patent US7645757B2", "about": "“Derivatives of heteroaryl-alkylcarbamates, methods for their preparation and use thereof as fatty acid amido hydrolase enzyme inhibitors” (sanofi-aventis, priority 2004, dated 2010)", "key": {"[1]": {"system": "male OF1 mice", "experiment": "test for analgesia: PBQ (phenylbenzoquinone)-induced abdominal tractions", "assay_type": "in vivo", "conditions": "10 mg/kg p.o.", "experimental": "The in vivo activity of the compounds of the invention was evaluated in a test for analgesia. Thus, the intraperitoneal (i.p.) administration of PBQ (phenylbenzoquinone, 2 mg/kg in a 0.9% sodium chloride solution comprising 5% of ethanol) to male OF1 mice weighing 25 to 30 g causes abdominal tractions, on average 30 twisting or contracting motions during the period from 5 to 15 minutes after injection. The test compounds are administered, orally (p.o.) or intraperitoneally (i.p.) in suspension in 0.5% Tween 80, 60 minutes or 120 minutes before the administration of PBQ. Under these conditions, the most powerful compounds of the invention reduce by 35 to 70% the number of tractions induced by the PBQ, within a range of doses of between 1 and 30 mg/kg."}, "[2]": {"target": "T1, enzyme FAAH (Fatty Acid amido Hydrolase) (Mus musculus, UniProt O08914)", "T1 construct": "The membrane homogenates are prepared at the time of use by homogenization of the tissues with a Polytron; from tissue; host or cells: mouse brain (minus the cerebellum), membrane homogenate", "T1 sequence (O08914 1-579)": "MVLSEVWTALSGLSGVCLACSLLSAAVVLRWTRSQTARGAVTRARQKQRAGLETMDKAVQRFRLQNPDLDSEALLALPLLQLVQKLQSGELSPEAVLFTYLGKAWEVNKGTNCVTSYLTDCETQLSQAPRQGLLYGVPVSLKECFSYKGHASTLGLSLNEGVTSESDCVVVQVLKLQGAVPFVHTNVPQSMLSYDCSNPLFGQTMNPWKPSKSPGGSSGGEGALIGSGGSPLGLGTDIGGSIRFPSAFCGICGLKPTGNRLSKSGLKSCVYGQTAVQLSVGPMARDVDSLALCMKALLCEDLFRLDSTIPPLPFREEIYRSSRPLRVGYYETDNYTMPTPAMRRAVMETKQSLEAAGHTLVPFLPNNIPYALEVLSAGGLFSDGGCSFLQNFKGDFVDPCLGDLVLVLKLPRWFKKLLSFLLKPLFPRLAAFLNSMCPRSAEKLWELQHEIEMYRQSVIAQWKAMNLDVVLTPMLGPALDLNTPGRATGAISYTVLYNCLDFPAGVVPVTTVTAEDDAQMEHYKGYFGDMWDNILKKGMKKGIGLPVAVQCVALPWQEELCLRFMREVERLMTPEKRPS", "experiment": "radioenzymatic test of FAAH inhibition (hydrolysis of ((1-3H)ethanolamine)-anandamide by mouse brain membrane homogenates)", "assay_type": "biochemical", "conditions": "10 μM anandamide, 15 minutes at 25° C., read-out: IC50 (concentration which inhibits the control enzymatic activity of FAAH by 50%)", "experimental": "The compounds of the invention have formed the subject of pharmacological trials which make it possible to determine their inhibitory effect on the enzyme FAAH (Fatty Acid amido Hydrolase).\nThus, mouse brains (minus the cerebellum) are removed and stored at −80° C. The membrane homogenates are prepared at the time of use by homogenization of the tissues with a Polytron in a 10 mM Tris-HCl buffer (pH 8.0) comprising 150 mM NaCl and 1 mM EDTA. The enzymatic reaction is subsequently carried out in 70 μl of buffer comprising bovine serum albumin free from fatty acids (1 mg/ml). The test compounds, at various concentrations, the ((1-^3H)ethanolamine)-anandamide (specific activity of 15-20 Ci/mmol), diluted to 10 μM with non-radiolabelled anandamide, and the membrane preparation (400 μg of frozen tissue per assay) are successively added. After 15 minutes at 25° C., the enzymatic reaction is halted by addition of 140 μl of chloroform/methanol (2:1). The mixture is stirred for 10 minutes and is then centrifuged at 3500 g for 15 minutes. An aliquot (30 μl) of the aqueous phase comprising the (1-^3H)ethanolamine is counted by liquid scintillation."}}}
{"compound": "CNC(=O)COC(=O)NCCCCn1ccc2ccccc21", "note": "[Compound 56, 2-(methylamino)-2-oxoethyl 4-(1H-indol-1-yl)butylcarbamate]", "values": [{"measurement": "melting point", "value": "64 to 67", "unit": "°C"}]}
{"compound": "CNC(=O)COC(=O)NCCCc1cc(-c2ccc(-c3ccccc3)cc2)no1", "note": "[Compound 30, 2-(methylamino)-2-oxoethyl 3-[3-(4-phenylphenyl)isoxazol-5-yl]propylcarbamate]", "values": [{"measurement": "melting point", "value": "198 to 200", "unit": "°C"}]}
{"compound": "NC(=O)COC(=O)NCCCCc1ccncc1", "note": "[Compound 37, 2-amino-2-oxoethyl 4-(pyrid-4-yl)butylcarbamate]", "values": [{"measurement": "melting point", "value": "124 to 126", "unit": "°C"}]}
{"compound": "CNC(=O)COC(=O)NCCCCn1ccc2cccnc21", "note": "[Compound 58, 2-(methylamino)-2-oxoethyl 4-(1H-pyrrolo[2,3-b]pyrid-1-yl)butylcarbamate]", "values": [{"measurement": "melting point", "value": "52 to 54", "unit": "°C"}]}
{"compound": "NC(=O)COC(=O)NCCCC#Cc1cccc2ccccc12", "note": "[Compound 71, 2-amino-2-oxoethyl [5-(naphth-1-yl)pent-4-yn-1-yl]carbamate]", "values": [{"measurement": "melting point", "value": "105 to 108", "unit": "°C"}]}
{"compound": "CNC(=O)COC(=O)NCCc1ccc(-c2ccccc2)nc1", "note": "[Compound 3, 2-(methylamino)-2-oxoethyl 2-(6-phenylpyrid-3-yl)ethylcarbamate]", "values": [{"measurement": "melting point", "value": "130 to 132", "unit": "°C"}]}
{"compound": "CNC(=O)COC(=O)NCCCCc1cc(-c2ccc(Cl)cc2)no1", "note": "[Compound 48, 2-(methylamino)-2-oxoethyl 4-[3-(4-chlorophenyl)isoxazol-5-yl]butylcarbamate]", "values": [{"measurement": "reduction of the number of tractions induced by the PBQ", "setting": "[1]; administered 60 minutes before PBQ", "value": 53, "unit": "%"}, {"measurement": "reduction of the number of tractions induced by the PBQ", "setting": "[1]; administered 120 minutes before PBQ", "value": 62, "unit": "%"}]}
{"compound": "CNC(=O)COC(=O)NCCCc1cc(-c2ccc(Cl)cc2)no1", "note": "[Compound 29, 2-(methylamino)-2-oxoethyl 3-[3-(4-chlorophenyl)isoxazol-5-yl]propylcarbamate]", "values": [{"measurement": "melting point", "value": "158 to 160", "unit": "°C"}]}
{"compound": "CNC(=O)COC(=O)NCCCc1cc(-c2ccc(Cl)cc2)ncn1", "note": "[Compound 20, 2-(methylamino)-2-oxoethyl 3-[6-(4-chlorophenyl)pyrimidin-4-yl]propylcarbamate]", "values": [{"measurement": "melting point", "value": "147 to 149", "unit": "°C"}]}
{"compound": "NC(=O)COC(=O)NCCCCCc1cncc2ccccc12", "note": "[Compound 68, 2-amino-2-oxoethyl 5-(isoquinolin-4-yl)pentylcarbamate]", "values": [{"measurement": "IC50", "setting": "[2]", "value": 267, "unit": "nM"}]}
